Measurements as given in US7417062B2, “Substituted arylamides” (ChemoCentryx, Inc., priority 2004, dated 2008).

What follows are compounds tested against T1, CCXCKR2 receptor (Homo sapiens, UniProt P25106) (assay: Displacement of 125I-labeled SDF-1 from the CCXCKR2 receptor (radioligand binding, determination of IC50 values)). Conditions: MCF-7 and/or MDA-MB-435S cells expressing CCXCKR2; 125I SDF-1; 3 hr at 4° C.; read-out: Activity (ability to displace 125I SDF-1 from CCXCKR2).
T1 construct: host or cells: MCF-7 (endogenous) and/or MDA-MB-435S transfected with hRDC1 in pcDNA3.1(+)
T1 sequence (P25106 whole entry): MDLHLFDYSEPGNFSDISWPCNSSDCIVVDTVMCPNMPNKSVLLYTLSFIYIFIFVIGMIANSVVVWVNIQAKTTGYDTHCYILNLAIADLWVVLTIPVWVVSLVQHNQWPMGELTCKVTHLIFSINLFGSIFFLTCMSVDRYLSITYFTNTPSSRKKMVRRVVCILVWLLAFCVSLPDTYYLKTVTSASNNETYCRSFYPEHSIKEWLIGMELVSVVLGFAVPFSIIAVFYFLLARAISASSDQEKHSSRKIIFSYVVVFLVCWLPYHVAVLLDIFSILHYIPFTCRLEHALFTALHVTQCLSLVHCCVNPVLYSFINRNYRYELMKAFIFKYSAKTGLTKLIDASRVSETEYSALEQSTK
Procedure: The ability of the compounds to displace the labeled chemokine from the CCXCKR2 receptor sites at multiple concentrations was then determined with the screening process.
Compounds that were deemed effective modulators were able to displace at least 50% of the SDF-1 from the CCXCKR2 receptor at concentrations at or below 10 micromolar (μM) and more preferably at concentrations at or below 2 micromolar. At present, especially preferred compounds can displace at least 50% of the SDF-1 from the CCXCKR2 receptor at concentrations at or below 500 nM. Exemplary compounds that met these criteria are reproduced in Table B below. All compounds were prepared as described in the Examples above, or by related methods substituting readily available starting materials.
Reagents and Cells. ^125I-labeled SDF-1 was purchased from Perkin-Elmer Life Sciences, Inc. (Boston, Mass.). The MCF-7 (adenocarcinoma; mammary gland) cell line was obtained from the American Type Culture Collection (Manassas, Va.) or and was cultured in DMEM (Mediatech, Herndon, Va.) supplemented with 10% fetal bovine serum (FBS) (HyClone Logan, Utah) and bovine insulin (0.01 mg/mL) (Sigma, St. Louis, Mo.) at 37° C. in a humidified incubator at a 5% CO2/air mixture. CCXCKR2 transfected MDA-MB-435S were produced as described below. MDA-MB-435S human breast cancer line, was purchased from ATCC, and cultured in DMEM/10% FBS medium. The complete coding sequence of the gene encoding CCXCKR2 (a.k.a.CXCR7, hRDC1), was isolated from MCF-7 cells using μMACs mRNA isolation kit (Miltenyi Biotec, Auburn, Calif.). DNA contamination was removed by DNase digestion via RNeasy columns (Qiagen, Inc., Valencia, Calif.) and cDNA was generated using GeneAmp RNA PCR Core Kit (Applied Biosystems, Foster City, Calif.). PCR of cDNA samples was performed using Taq PCR Master Mix kit (Qiagen, Inc.) and hRDC1 primers harboring 5′ and 3′ Not I sites (hRDC1F 5′-[…]-3′ (SEQ ID NO:1), hRDC1R 5′-[…]-3′ (SEQ ID NO:2)) Not I digested PCR product was ligated into Not I digested pcDNA3.1(+)(Invitrogen, Carlsbad, Calif.) and screened for orientation and sequence confirmed. Plasmid DNA was then isolated from overnight bacterial cultures by Maxiprep (Qiagen, Inc.). Plasmid DNA (10 μg) was added to MDA-MB-435s cells and cells were electroporated (0.22 kV, 960 uF) via Gene Pulser (Biorad laboratories, Hercules, Calif.). 48 hr post-electroporation, cells were transferred to selection medium (1000 ug/ml G418).
Binding Analysis. Target compounds were tested to determine their ability to bind with CCXCKR2 sites on MCF-7 and/or MDA-MB-435S cells. Efficiency-maximized radioligand binding using filtration protocols as described in Dairaghi D J, et al., HHV8-encoded vMIP-I selectively engages chemokine receptor CCR5. Agonist and antagonist profiles of viral chemokines., J. Biol. Chem. 1999 Jul. 30; 274(31): 21569-74 and Gosling J, et al., Cutting edge: identification of a novel chemokine receptor that binds dendritic cell-and T cell-active chemokines including ELC, SLC, and TECK., J. Immunol. 2000 Mar. 15; 164(6):2851-6 was used.
In these assays, MCF-7 and/or MDA-MB-435S cells were interrogated with the target compounds and the ability of these compounds to displace ^125I radiolabeled SDF-1 was assessed using the protocol described in Dairaghi and Gosling. The target compounds were added to the plate to the indicated concentration and were then incubated with cells followed by the addition of radiolabeled chemokine (^125I SDF-1) for 3 hr at 4° C. in the following binding medium (25 mM HEPES, 140 mM NaCl, 1 mM CaCl2, 5 mM MgCl2 and 0.2% bovine serum albumin, adjusted to pH 7.1). All assays were then incubated for 3 hrs at 4° C. with gentle agitation. Following incubation in all binding assays, reactions were aspirated onto PEI-treated GF/B glass filters (Packard) using a cell harvester (Packard) and washed twice (25 mM HEPES, 500 mM NaCl, 1 mM CaCl2, 5 mM MgCl2, adjusted to pH 7.1). […]

Q: `COc1cc(C(=O)N(Cc2nc(-c3ccccc3)sc2Cl)C[C@@H]2C[C@@H]3CCCC[C@@H]3N2)cc2c1OC(C)(C)O2` [Example 79, 7-Methoxy-2,2-dimethyl-benzo[1,3]dioxole-5-carboxylic acid (5-chloro-2-phenyl-thiazol-4-ylmethyl)-[(2S,3aS,7 aS)-1-(octahydro-indol-2-yl)methyl]-amide] was tested. Which IC50 did it give?
A: < 500 nM

Q: For `COc1ccc(C(=O)N(Cc2nc3ccccc3s2)C[C@@H]2CCCN2CCO)cc1OC` [Example 26, N-Benzothiazol-2-yl methyl-(S)—N-[1-(2-hydroxy-ethyl)-pyrrolidin-2-ylmethyl]-3,4-dimethoxy-benzamide], which IC50 is on record?
A: < 500 nM

Q: How did the IC50 turn out when `COc1cc(C(=O)N(CCC2CCCN2C)CC2=C(Cl)c3cc(F)ccc3OC2)cc(OC)c1OC` (stereo not drawn) was run?
A: < 500 nM

Q: With `COc1ccc(C(=O)N(C[C@@H]2CCCN2CC2CC2)c2cccc(-c3ccc(N(C)C)cc3)c2)cc1OC` [Example 37, (S)—N-(1-Cyclopropylmethyl-pyrrolidin-2-ylmethyl)-N-(4′-dimethylamino-biphenyl-3-yl)-3,4-dimethoxy-benzamide] as the compound, how does the IC50 read?
A: < 10000 nM

Q: How did the IC50 turn out when `COc1cc(C(=O)N(Cc2cnc3ccccc3n2)C[C@@H]2CCCN2C2CCC2)cc2c1OC(C)(C)O2` [Example 67, 7-Methoxy-2,2-dimethyl-benzo[1,3]dioxole-5-carboxylic acid ((S)-1-cyclobutyl-pyrrolidin-2-ylmethyl)-quinoxalin-2-ylmethyl-amide] was run?
A: < 2000 nM

Q: For `COc1cc(C(=O)N(Cc2ccc3ccccc3n2)CC2CNC2)cc2c1OC(C)(C)O2` [Example 48, 7-Methoxy-2,2-dimethyl-benzo[1,3]dioxole-5-carboxylic acid azetidin-3-ylmethyl-quinolin-2-ylmethyl-amide], which IC50 is on record?
A: < 500 nM

Q: `COc1cc(C(=O)N(Cc2ccc3ccccc3n2)CC2CN(C)C2)cc2c1OC(C)(C)O2` [Example 49, 7-Methoxy-2,2-dimethyl-benzo[1,3]dioxole-5-carboxylic acid (1-methyl-azetidin-3-ylmethyl)-quinolin-2-ylmethyl-amide] was tested. Which IC50 did it give?
A: < 500 nM

Q: Which IC50 does the source give for `COc1ccc(C(=O)N(C[C@@H]2CCCN2CC2CC2)c2cccc(-c3ccc(F)c(Cl)c3)c2)cc1OC` [Example 38, N-(3′-Chloro-4′-fluoro-biphenyl-3-yl)-(S)—N-(1-cyclopropylmethyl-pyrrolidin-2-ylmethyl)-3,4-dimethoxy-benzamide] here?
A: < 10000 nM

Q: `COc1ccc(C(=O)N(Cc2cc3ccccc3s2)C[C@@H]2CCCN2)cc1OC` [Example 29, N-Benzo[b]thiophene-2-ylmethyl-3,4-dimethoxy-N—(S)-pyrrolidin-2-ylmethyl-benzamide] was tested. Which IC50 did it give?
A: < 2000 nM

Q: `COc1ccc(C(=O)N(Cc2nc3ccccc3s2)C[C@@H]2CCCN2)cc1OC` [Example 25, N-Benzothiazol-2-yl methyl-3,4 dimethoxy-N—(S)-pyrrolidin-2-ylmethyl-benzamide] was tested. Which IC50 did it give?
A: < 2000 nM

Q: Which IC50 does the source give for `COc1ccc(C(=O)N(Cc2nc3ccccc3s2)C[C@@H]2CCCN2C(C)C)cc1OC` [Example 28, N-Benzothiazol-2-yl methyl-(S)—N-(1-isopropyl-pyrrolidin-2-ylmethyl)-3,4-dimethoxy-benzamide] here?
A: < 500 nM

Q: Which IC50 does the source give for `COc1cc(C(=O)N(Cc2ccc3ccccc3[n+]2[O-])C[C@@H]2CCCN2C2CCC2)cc2c1OC(C)(C)O2` [Example 69, 7-Methoxy-2,2-dimethyl-benzo[1,3]dioxole-5-carboxylic acid ((S)-1-cyclobutyl-pyrrolidin-2-ylmethyl)-(1-oxy-quinolin-2-ylmethyl)-amide] here?
A: < 10000 nM

Q: With `COc1cc(C(=O)N(C[C@@H]2CCCN2CC2CC2)c2cccc(-c3ccccc3)c2)ccc1OC(F)F` [Example 32, N-Biphenyl-3-yl-(S)—N-(1-cyclopropylmethyl-pyrrolidin-2-ylmethyl)-4-difluoromethoxy-3-methoxy-benzamide] as the compound, how does the IC50 read?
A: < 500 nM

Q: Which IC50 does the source give for `COc1cc(C(=O)N(Cc2cc3ccccc3o2)C[C@@H]2C[C@@H]3CCCC[C@@H]3N2)cc2c1OC(C)(C)O2` [Example 57, 7-Methoxy-2,2-dimethyl-benzo[1,3]dioxole-5-carboxylic acid benzofuran-2-ylmethyl-[(2S,3aS,7aS)-1-(octahydro-indol-2-yl)methyl]-amide] here?
A: < 500 nM

Q: How did the IC50 turn out when `COc1cc(C(=O)N(Cc2ccc3ccccc3n2)C[C@@H]2C[C@@H]3CCCC[C@@H]3N2)cc2c1OC(C)(C)O2` [Example 70, 7-Methoxy-2,2-dimethyl-benzo[1,3]dioxole-5-carboxylic acid [(2S,3aS,7aS)-1-(octahydro-indol-2-yl)methyl]-quinolin-2-ylmethyl-amide] was run?
A: < 500 nM

Q: `COc1cc(C(=O)N(Cc2csc(-c3ccccc3)n2)C[C@@H]2CCCN2C)cc2c1OC(C)(C)O2` [Example 56, 7-Methoxy-2,2-dimethyl-benzo[1,3]dioxole-5-carboxylic acid ((S)-1-methyl-pyrrolidin-2-ylmethyl)-(2-phenyl-thiazol-4-ylmethyl)-amide] was tested. Which IC50 did it give?
A: < 500 nM

Q: `COc1ccc(C(=O)N(C[C@@H]2CCCN2)c2cccc(-c3ccccc3)c2)cc1OC` [Example 21] was tested. Which IC50 did it give?
A: < 2000 nM

Q: For `COc1cc(C(=O)N(Cc2nc(-c3ccccc3)cs2)C[C@@H]2CCCN2CC2CNC2)cc2c1OC(C)(C)O2` [Example 52, 7-Methoxy-2,2-dimethyl-benzo[1,3]dioxole-5-carboxylic acid ((S)-1-azetidin-3-ylmethyl-pyrrolidin-2-ylmethyl)-(4-phenyl-thiazol-2-ylmethyl)-amide], which IC50 is on record?
A: < 500 nM

Q: `COc1cc(C(=O)N(Cc2cc3ccccc3s2)C[C@@H]2CCCN2C2CCC2)cc2c1OC(C)(C)O2` [Example 60, 7-Methoxy-2,2-dimethyl-benzo[1,3]dioxole-5-carboxylic acid benzo[b]thiophen-2-ylmethyl-((S)-1-cyclobutyl-pyrrolidin-2-ylmethyl)-amide] was tested. Which IC50 did it give?
A: < 500 nM

Q: With `COc1cc(C(=O)N(Cc2cnc3ccccc3n2)C[C@@H]2C[C@@H]3CCCC[C@@H]3N2)cc2c1OC(C)(C)O2` [Example 68, 7-Methoxy-2,2-dimethyl-benzo[1,3]dioxole-5-carboxylic acid [(2S,3aS,7aS)-1-(octahydro-indol-2-yl)methyl]-quinoxalin-2-ylmethyl-amide] as the compound, how does the IC50 read?
A: < 500 nM

Q: Which IC50 does the source give for `COc1ccc(C(=O)N(C[C@@H]2CCCN2CC2CCCCC2)c2cccc(-n3cccn3)c2)cc1OC` [Example 75, N-((S)-1-Cyclohexylmethyl-pyrrolidin-2-ylmethyl)-3,4-dimethoxy-N-(3-pyrazol-1-yl-phenyl)-benzamide] here?
A: < 10000 nM

Q: For `COc1ccc(C(=O)N(C[C@@H]2CCCN2CC2CCCCC2)c2ccc(-c3ccccc3)cc2)cc1OC`, which IC50 is on record?
A: < 10000 nM

Q: With `COc1cc(C(=O)N(CCC2CCCN2C)Cc2ccc3c(c2)OCCO3)cc(OC)c1OC` (stereo not drawn) [Example 9, N-(2,3-Dihydro-benzo[1,4]dioxin-6-ylmethyl)-3,4,5-trimethoxy-N-[2-(1-methyl-pyrrolidin-2-yl)-ethyl]-benzamide] as the compound, how does the IC50 read?
A: < 500 nM

Q: With `COc1ccc(C(=O)N(C[C@@H]2CCCN2C(C)C)c2cccc(-c3ccccc3)c2)cc1OC` [Example 23, N-Biphenyl-3-yl-(S)—N-(1-isopropyl-pyrrolidin-2-ylmethyl)-3,4-dimethoxy-benzamide] as the compound, how does the IC50 read?
A: < 500 nM
